Reference: PubChem BioAssay (NCI)
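Five concentrations, 48 hours, 96-well plates. At the TGI there is no net growth.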

Assays:
Assay in all cases: NCI anticancer screen, dose series, 48 h
[1] = tested on: SW-620 colon
[2] = tested on: DU-145 prostate
[3] = tested on: SK-MEL-5 melanoma
[4] = tested on: KM12 colon
[5] = tested on: HS 578T breast
[6] = tested on: NCI/ADR-RES ovarian
[7] = tested on: OVCAR-4 ovarian
[8] = tested on: A549 NSCLC
[9] = tested on: ACHN renal
[10] = tested on: HCC-2998 colon
[11] = tested on: NCI-H226 lung
[12] = tested on: NCI-H460 lung
[13] = tested on: NCI-H522 lung
[14] = tested on: MOLT-4 leukemia
[15] = tested on: UO-31 renal
[16] = tested on: HOP-62 NSCLC
[17] = tested on: T-47D breast
[18] = tested on: CAKI-1 renal
[19] = tested on: SN12C renal
[20] = tested on: HT29 colon
[21] = tested on: SNB-75 CNS
[22] = tested on: HCT-116 colon
[23] = tested on: A498 renal
[24] = tested on: UACC-62 melanoma
[25] = tested on: SK-OV-3 ovarian
[26] = tested on: SF-268 CNS
[27] = tested on: CCRF-CEM leukemia
[28] = tested on: IGROV1 ovarian
[29] = tested on: M14 melanoma
[30] = tested on: K-562 leukemia
[31] = tested on: OVCAR-5 ovarian
[32] = tested on: SR leukemia
[33] = tested on: COLO 205 colon
[34] = tested on: SF-539 CNS
[35] = tested on: MDA-MB-231 breast
[36] = tested on: MCF7 breast
[37] = tested on: HL-60(TB) leukemia
[38] = tested on: OVCAR-3 ovarian
[39] = tested on: OVCAR-8 ovarian
[40] = tested on: SNB-19 CNS
[41] = tested on: UACC-257 melanoma
[42] = tested on: U251 CNS
[43] = tested on: BT-549 breast
[44] = tested on: MDA-N
[45] = tested on: SK-MEL-28 melanoma
[46] = tested on: 786-0 renal
[47] = tested on: SK-MEL-2 melanoma
[48] = tested on: TK-10 renal
[49] = tested on: EKVX NSCLC
[50] = tested on: HCT-15 colon
[51] = tested on: PC-3 prostate
[52] = tested on: NCI-H23 lung
[53] = tested on: SF-295 CNS
[54] = tested on: HOP-92 NSCLC
[55] = tested on: MALME-3M melanoma
[56] = tested on: RPMI-8226 leukemia
[57] = tested on: LOX IMVI melanoma
[58] = tested on: MDA-MB-435
[59] = tested on: RXF 393 renal

N#Cc1nn(C(N)=O)c(N)c1C#N
TGI [1]: > 100 µM | TGI [2]: > 100 µM | TGI [3]: > 100 µM | TGI [4]: > 100 µM | TGI [5]: > 100 µM | TGI [6]: > 100 µM | TGI [7]: > 100 µM | TGI [8]: > 100 µM | TGI [9]: > 100 µM | TGI [10]: > 100 µM | TGI [11]: > 100 µM | TGI [12]: > 100 µM | TGI [13]: > 100 µM | TGI [14]: > 100 µM | TGI [15]: > 100 µM | TGI [16]: > 100 µM | TGI [17]: > 100 µM | TGI [18]: > 100 µM | TGI [19]: > 100 µM | TGI [20]: > 100 µM | TGI [21]: > 100 µM | TGI [22]: > 100 µM | TGI [23]: > 100 µM | TGI [24]: > 100 µM | TGI [25]: > 100 µM | TGI [26]: > 100 µM | TGI [27]: > 100 µM | TGI [28]: > 100 µM | TGI [29]: > 100 µM | TGI [30]: > 100 µM | TGI [31]: > 100 µM | TGI [32]: > 100 µM | TGI [33]: > 100 µM | TGI [34]: > 100 µM | TGI [35]: > 100 µM | TGI [36]: > 100 µM | TGI [37]: > 100 µM | TGI [38]: > 100 µM | TGI [39]: > 100 µM | TGI [40]: > 100 µM | TGI [41]: > 100 µM | TGI [42]: > 100 µM | TGI [43]: > 100 µM | TGI [44]: > 100 µM | TGI [45]: > 100 µM | TGI [46]: > 100 µM | TGI [47]: > 100 µM | TGI [48]: > 100 µM | TGI [49]: > 100 µM | TGI [50]: > 100 µM | TGI [51]: > 100 µM | TGI [52]: > 100 µM | TGI [53]: > 100 µM

O=C(NNC(=O)c1ccccc1O)c1ccccc1O
TGI [1]: > 100 µM | TGI [2]: > 100 µM | TGI [3]: > 34.5 µM | TGI [4]: > 100 µM | TGI [6]: > 100 µM | TGI [8]: > 100 µM | TGI [9]: > 100 µM | TGI [11]: > 100 µM | TGI [12]: > 100 µM | TGI [13]: 3.6 µM | TGI [54]: > 100 µM | TGI [14]: > 91.7 µM | TGI [15]: > 100 µM | TGI [16]: > 100 µM | TGI [17]: > 78.4 µM | TGI [18]: > 100 µM | TGI [19]: > 100 µM | TGI [55]: > 100 µM | TGI [20]: > 100 µM | TGI [56]: > 100 µM | TGI [22]: > 100 µM | TGI [23]: > 100 µM | TGI [24]: > 100 µM | TGI [25]: > 100 µM | TGI [26]: > 58.4 µM | TGI [27]: > 100 µM | TGI [28]: > 34.8 µM | TGI [29]: 25.4 µM | TGI [30]: > 100 µM | TGI [31]: > 100 µM | TGI [32]: > 31.1 µM | TGI [33]: > 38.9 µM | TGI [34]: 6.16 µM | TGI [35]: > 100 µM | TGI [36]: > 100 µM | TGI [37]: 0.944 µM | TGI [38]: > 100 µM | TGI [39]: > 100 µM | TGI [40]: > 100 µM | TGI [42]: > 100 µM | TGI [43]: > 100 µM | TGI [44]: > 100 µM | TGI [57]: > 100 µM | TGI [45]: > 100 µM | TGI [46]: > 100 µM | TGI [47]: > 100 µM | TGI [48]: > 100 µM | TGI [49]: > 100 µM | TGI [50]: > 100 µM | TGI [51]: > 100 µM | TGI [52]: > 100 µM | TGI [58]: > 100 µM | TGI [53]: > 100 µM

NN/C(=N\S(=O)(=O)c1cc2ccccc2o1)Nc1ccc(Cl)cc1
TGI [1]: > 100 µM | TGI [2]: > 100 µM | TGI [3]: > 100 µM | TGI [4]: > 100 µM | TGI [5]: 97.2 µM | TGI [6]: > 100 µM | TGI [7]: > 100 µM | TGI [8]: > 100 µM | TGI [9]: > 100 µM | TGI [11]: > 100 µM | TGI [12]: > 100 µM | TGI [13]: 68.3 µM | TGI [54]: 59.5 µM | TGI [14]: > 100 µM | TGI [15]: > 100 µM | TGI [16]: > 100 µM | TGI [17]: > 100 µM | TGI [18]: > 100 µM | TGI [19]: > 100 µM | TGI [55]: > 100 µM | TGI [20]: > 100 µM | TGI [21]: 85.8 µM | TGI [56]: > 100 µM | TGI [22]: > 100 µM | TGI [23]: > 100 µM | TGI [59]: 64.2 µM | TGI [24]: > 100 µM | TGI [25]: > 100 µM | TGI [26]: > 100 µM | TGI [27]: > 100 µM | TGI [28]: > 100 µM | TGI [29]: > 100 µM | TGI [30]: > 100 µM | TGI [31]: > 100 µM | TGI [32]: > 100 µM | TGI [33]: > 100 µM | TGI [34]: > 100 µM | TGI [35]: > 100 µM | TGI [36]: > 100 µM | TGI [37]: > 100 µM | TGI [38]: > 100 µM | TGI [39]: > 100 µM | TGI [40]: > 100 µM | TGI [41]: > 100 µM | TGI [42]: > 100 µM | TGI [43]: > 100 µM | TGI [44]: > 100 µM | TGI [57]: > 100 µM | TGI [45]: > 100 µM | TGI [46]: > 100 µM | TGI [47]: > 100 µM | TGI [48]: > 100 µM | TGI [49]: > 100 µM | TGI [50]: > 100 µM | TGI [51]: > 100 µM | TGI [52]: > 100 µM | TGI [53]: > 100 µM
